What all share (format): cell-based
Experiment [1] deals with B. cereus UC 3145. The experiment in a line: standard disc plate assay, zone of inhibition. Conditions: Bacillus cereus, UC3145, read-out: Zones of Inhibition, 1 mg/ml; 12.5 mm paper discs. An excerpt: (§1) The compounds of formulas (V, VII, IX, XI, XIV, XVI, and XIX) are active as antibacterials and can be used in various environments to erradicate or control susceptible microorganisms. Tables I and II set forth the in vitro antibacterial test results for representative compounds of the present invention. The results were obtained with a standard disc plate assay using 12.5 mm paper discs.

Experiment [2] concerns E. coli UC 51. In words: standard disc plate assay, zone of inhibition. Conditions: Escherichia coli, 12.5 mm paper discs.
Source text: as §1

In experiment [3] the test system is S. lutea UC 130. The experiment in a line: standard disc plate assay, zone of inhibition. Conditions: Micrococcus luteus, UC130, read-out: Zones of Inhibition.
Source text: as §1

Experiment [4] has as its system S. schottmeulleri UC 126. In words: standard disc plate assay, zone of inhibition. The following applies: 12.5 mm paper discs, read-out: Zones of Inhibition; for zone of inhibition at 1000 µg/mL: 1 mg/ml.
Source text: as §1

In experiment [5] the test system is D. pneumoniae UC 41. In words: standard microplate test in BHI Agar, MIC. Conditions: Streptococcus pneumoniae, UC41, 37°, 20 hours, read-out: Minimal Inhibitory Concentration. As to the method:
(§2) The compounds VII, XI, XVβ, XVα and XVI were tested in a standard microplate test in BHI (Brain Heart Infusion) Agar at a concentration of 1 mg./ml. and dilutions thereof at 37° incubation temperature. The end points are read at 20 hours. BHI Agar is supplied by Difco Laboratories, Detroit, Mich., U.S.A. and has the following compositions:
(§3) Calf brains, infusion from: 200 gm.
(§4) Beef heart, infusion from: 250 gm.
(§5) Bacto Proteose-peptone, Difco: 10 gm.
(§6) Bacto-Dextrose, Difco: 1 gm.
(§7) Disodium phosphate: 2.5 gm.

For experiment [6], the system named is K. pneumoniae UC 58. In words: standard microplate test in BHI Agar, MIC. The following applies: Klebsiella pneumoniae, UC58, 20 h. How it is done: as §2, §3, §4, §5, §6, §7
Experiment [7] has as its system P. morganii UC 3186. The experiment in a line: standard microplate test in BHI Agar, MIC. The following applies: Morganella morganii, UC3186, 20 h. As to the method:
as §2, §3, §4, §5, §6, §7

Experiment [8] concerns S. aureus UC 76. The experiment in a line: standard microplate test in BHI Agar, MIC. Conditions: Staphylococcus aureus, UC76, 20 h, read-out: Minimal Inhibitory Concentration. As to the method:
as §2, §3, §4, §5, §6, §7

Experiment [9] concerns S. faecalis UC 694. In words: standard microplate test in BHI Agar, MIC. The following applies: Enterococcus faecalis. How it is done:
as §2, §3, §4, §5, §6, §7

The test system of experiment [10] is S. flexneri UC 143. In words: standard microplate test in BHI Agar, MIC. The following applies: Shigella flexneri, UC143, 37°, 20 hours. As to the method: as §2, §3, §4, §5, §6, §7
Experiment [11] relates to S. pyogenes UC 152. The experiment in a line: standard microplate test in BHI Agar, MIC. The following applies: Streptococcus pyogenes, UC152, 20 h. How it is done: as §2, §3, §4, §5, §6, §7
Experiment [12] concerns S. schottmuelleri UC 126. In words: standard microplate test in BHI Agar, MIC. Conditions: 37°, 20 hours. As to the method:
as §2, §3, §4, §5, §6, §7

Experiment [13] concerns S. typhi UC 215. The experiment in a line: standard microplate test in BHI Agar, MIC. The following applies: Salmonella enterica, 20 h, read-out: Minimal Inhibitory Concentration. As to the method:
as §2, §3, §4, §5, §6, §7

The subject of experiment [14] is E. coli UC 311. The experiment in a line: standard microplate test in BHI Agar, MIC. The following applies: Escherichia coli, UC311, 20 h, read-out: Minimal Inhibitory Concentration. As to the method: as §2, §3, §4, §5, §6, §7
The test system of experiment [15] is P. mirabilis UC 6671. The experiment in a line: standard microplate test in BHI Agar, MIC. Conditions: Proteus mirabilis, UC6671, 37°, 20 hours. How it is done: as §2, §3, §4, §5, §6, §7
Experiment [16] relates to P. vulgaris UC 93. In words: standard microplate test in BHI Agar, MIC. Conditions: Proteus vulgaris, UC93, 37°, 20 hours. How it is done:
as §2, §3, §4, §5, §6, §7

The test system of experiment [17] is S. marcescens UC 131. The experiment in a line: standard microplate test in BHI Agar, MIC. The following applies: Serratia marcescens, UC131, 37°, 20 hours. As to the method: as §2, §3, §4, §5, §6, §7
Experiment [18] has as its system E. coli UC 45. In words: standard microplate test in BHI Agar, MIC. The following applies: Escherichia coli, UC45, 37°, 20 hours, read-out: Minimum Inhibitory Concentration. How it is done:
as §2, §3, §4, §5, §6, §7

In experiment [19] the test system is S. pneumoniae I UC 41. The experiment in a line: standard microplate test in BHI Agar, MIC. Conditions: Streptococcus pneumoniae, UC41, 37°, 20 hours, read-out: Minimum Inhibitory Concentration. As to the method: as §2, §3, §4, §5, §6, §7
Experiment [20] deals with S. aureus UC 80. In words: standard disc plate assay, zone of inhibition. Conditions: Staphylococcus aureus, UC80, read-out: Zones of Inhibition, 1 mg/ml; 12.5 mm paper discs.
Source text: as §1

Where [21] appears, read: read-out: Minimal Inhibitory Concentration.
Where [22] appears, read: UC694, 20 h, read-out: Minimal Inhibitory Concentration.
Where [23] appears, read: read-out: Minimum Inhibitory Concentration.

Converted amounts (≈) assume the structure as drawn. Read-outs that look alike come from different tables or passages of the source.

As to `NC[C@H]1O[C@H](O[C@@H]2[C@@H](N)C[C@@H](N)C[C@H]2OC2O[C@H](CO)[C@@H](O)[C@H]2O)[C@H](N)[C@@H](O)[C@@H]1O` (single isomer, unassigned) [Compound XVα, O-2,6-Diamino-2,6-dideoxy-α-D-glucopyranosyl (1→4)-O-[α-D-ribofuranosyl(1→5)]-2,6-dideoxy-D-streptamine], the zone of inhibition at 1000 µg/mL in experiment [1] was 20 mm; in [2] (UC51, read-out: Zones of Inhibition, 1 mg/ml), 24 mm; in [3], 16 mm; in experiment [4], 20 mm. Moreover, the MIC was 125 µg/mL (≈ 285 µM) in experiment [5]; 15.6 µg/mL (≈ 35.6 µM) in experiment [6] (setting [21]); 125 µg/mL (≈ 285 µM) in [7] (setting [21]); 125 µg/mL (≈ 285 µM) in experiment [8]; > 500 µg/mL in experiment [9] (setting [22]); 500 µg/mL (≈ 1140 µM) in experiment [10] (setting [21]). Besides, the MIC in [11] (setting [21]) came out at 31.2 µg/mL (≈ 71.2 µM); in experiment [12] (setting [21]), 125 µg/mL (≈ 285 µM); in experiment [13], 62.5 µg/mL (≈ 143 µM).
Consider `NC[C@H]1O[C@H](O[C@@H]2[C@@H](N)C[C@@H](N)C[C@H]2OC2O[C@H](CO)[C@@H](O)[C@H]2O)[C@H](N)[C@@H](O)[C@@H]1O` (single isomer, unassigned) [Compound XVβ, O-2,6-Diamino-2,6-dideoxy-α-D-glucopyranosyl (1→4)-O-[β-D-ribofuranosyl(1→5)]-2,6-dideoxy-D-streptamine], for which the zone of inhibition at 100 µg/mL in [2] (UC51, 0.1 mg/ml, read-out: Zones of Inhibition) came to 20 mm; in experiment [4] (0.1 mg/ml), 16 mm. Moreover, the zone of inhibition at 1000 µg/mL in [4] was 24 mm. Besides, the MIC in [5] is 15.6 µg/mL (≈ 35.6 µM); in experiment [14] it was 31.2 µg/mL (≈ 71.2 µM); in [15] (setting [21]), 125 µg/mL (≈ 285 µM); in experiment [16] (setting [21]) it was 31.2 µg/mL (≈ 71.2 µM); in experiment [8], 31.2 µg/mL (≈ 71.2 µM); in experiment [9] (UC694, BHI Agar, 37°, 20 hours, read-out: Minimal Inhibitory Concentration) it was 500 µg/mL (≈ 1140 µM). Besides, the results for the MIC in experiment [10] (setting [21]), in experiment [17] (setting [21]) and in experiment [12] (setting [21]) were 31.2 µg/mL (≈ 71.2 µM), 62.5 µg/mL (≈ 143 µM) and 7.8 µg/mL (≈ 17.8 µM), respectively.
As for `NC[C@H]1O[C@H](O[C@@H]2[C@@H](N)C[C@@H](N)C[C@@H]2O)[C@H](N)[C@@H](O)[C@@H]1O` [6-Deoxy-5-epineamine], the zone of inhibition at 1000 µg/mL in experiment [4] was 21 mm.
Take `C[C@@]1(O)C[C@H](N)C[C@H](N)[C@H]1O[C@H]1O[C@H](CN)[C@@H](O)[C@H](O)[C@H]1N` [6-Deoxy-5-methylneamine, 6-Deoxy-5-methyl-neamine]: the zone of inhibition at 1000 µg/mL in experiment [4] was determined as 21 mm. The MIC was 125 µg/mL (≈ 390 µM) in [18]; 15.6 µg/mL (≈ 48.7 µM) in experiment [6] (setting [23]); 250 µg/mL (≈ 780 µM) in experiment [15] (setting [23]); 125 µg/mL (≈ 390 µM) in experiment [7] (setting [23]); 62.5 µg/mL (≈ 195 µM) in experiment [16] (setting [23]); > 500 µg/mL in experiment [9] (UC694, 20 h, read-out: Minimum Inhibitory Concentration). For the same compound, the MIC in [10] (setting [23]) was 125 µg/mL (≈ 390 µM); in experiment [17] (setting [23]) it was 125 µg/mL (≈ 390 µM); in [19], 62.5 µg/mL (≈ 195 µM); in [11] (setting [23]), 7.8 µg/mL (≈ 24.3 µM); in experiment [12] (setting [23]), 62.5 µg/mL (≈ 195 µM).
`NC[C@H]1O[C@H](O[C@H]2[C@H](O)C[C@H](N)C[C@@H]2N)[C@H](N)[C@@H](O)[C@@H]1O` [6-deoxyneamine, 6-Deoxyneamine]: the MIC in experiment [18] is 31.2 µg/mL (≈ 102 µM); in experiment [15] (setting [23]), 62.5 µg/mL (≈ 204 µM); in experiment [7] (setting [23]), 62.5 µg/mL (≈ 204 µM); in [16] (setting [23]) it was 31.2 µg/mL (≈ 102 µM); in experiment [10] (setting [23]), 62.5 µg/mL (≈ 204 µM); in [19], 62.5 µg/mL (≈ 204 µM). For the same compound, the MIC in experiment [12] (setting [23]) was 31.2 µg/mL (≈ 102 µM).
For `NC[C@H]1O[C@H](O[C@@H]2[C@@H](N)C[C@@H](N)C[C@H]2O[C@@H]2C[C@@H](N)[C@H](O)[C@@H](CO)O2)[C@H](N)[C@@H](O)[C@@H]1O` [Compound XVI, O-2,6-Diamino-2,6-dideoxy-α-D-glucopyranosyl (1→4)-O-[3-amino-2,3-dideoxy-α-D-arabinohexopyranosyl(1→5)-2,6-dideoxy-D-streptamine]], the figures for the zone of inhibition at 1000 µg/mL in experiment [20] and in experiment [4] were 21 mm and 15 mm, respectively. Moreover, the MIC in experiment [9] (setting [22]), in experiment [10] (setting [21]) and in experiment [12] (setting [21]) was > 500 µg/mL each time.

The values above are taken from patent US4232148A, “6-Deoxyneamines” (The Upjohn Company, priority 1979, dated 1980).
